In ChEMBL document CHEMBL1201862, “PubChem BioAssay data set” (2004):
The source made the active and inactive calls.

Assays:
[1] = biological target: Cytochrome P450 2C19 (Homo sapiens, UniProt P33261); assay: Cytochrome panel assay with activity outcomes. Panel member name: p450-cyp2c19 Compounds with AC50 equal or less than 10 uM are considered active; type: functional; conditions: read-out: AC50
[2] = biological target: Photoreceptor-specific nuclear receptor (Homo sapiens, UniProt Q9Y5X4); type: functional, cell-based;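 note: CHO-S cells with Gal4-NCOR and VP16-NR2E3 two-hybrid luciferase reporter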
[3] = biological target: Cytochrome P450 3A4 (Homo sapiens, UniProt P08684);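 note: CYP3A4 tested as one member of a cytochrome P450 panel screen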
[4] = biological target: Cytochrome P450 2C9 (Homo sapiens, UniProt P11712)
[5] = NIH-3T3 fibroblast cytotoxicity, dose response, cytotoxicity control, cell-based, fluorescence, Alamar Blue, secondary assay (AID 2327); type: functional;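 note: NIH-3T3 mouse fibroblasts cultured with fluconazole at 8 µg/mL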
[6] = tested on: HEK293; assay: Fluorescence-based counterscreen for potentiators or agonists of NPY-Y2: cell-based high-throughput dose response assay to identify inhibitors of cyclic nucleotide gated ion channel (CNGC) activity. In this assay, the parental HEK293 cell line transfected with a cyclic-nucleotide gated ion channel (CNGC)-based cAMP sensor is used to measure inhibition of isoproterenol-induced CNGC activity by test compound.; type: functional; conditions: Homo sapiens;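 note: stimulus is 1 µM isoproterenol at EC100 plus PDE inhibitor Ro 20-1724 at 25 µM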
[7] = tested on: Streptococcus sp. 'group A'; assay: growth inhibition of control SK(-) GAS strain, dose response, counter-screen for streptokinase expression inhibitor project, luminescence, kanamycin, BacTiterGlo, confirmation (AID 1900); type: functional, organism-based
[8] = biological target: T1, Neuropeptide Y receptor type 2 (Homo sapiens, UniProt P49146); assay: Fluorescence-based cell-based high-throughput dose response assay for agonists of NPY-Y2. [Related pubchem assays: 1703 (Screening assay (CNGC inhibitors).), 1359 (Screening assay (NPY-Y2 potentiators or agonists).), 1304 (Screening assay (NPY-Y1 potentiators or agonists).), 1710 (Screening assay (NPY-Y2 agonists).), 1791 (Summary AID.)]; type: functional
T1 sequence (P49146 whole entry): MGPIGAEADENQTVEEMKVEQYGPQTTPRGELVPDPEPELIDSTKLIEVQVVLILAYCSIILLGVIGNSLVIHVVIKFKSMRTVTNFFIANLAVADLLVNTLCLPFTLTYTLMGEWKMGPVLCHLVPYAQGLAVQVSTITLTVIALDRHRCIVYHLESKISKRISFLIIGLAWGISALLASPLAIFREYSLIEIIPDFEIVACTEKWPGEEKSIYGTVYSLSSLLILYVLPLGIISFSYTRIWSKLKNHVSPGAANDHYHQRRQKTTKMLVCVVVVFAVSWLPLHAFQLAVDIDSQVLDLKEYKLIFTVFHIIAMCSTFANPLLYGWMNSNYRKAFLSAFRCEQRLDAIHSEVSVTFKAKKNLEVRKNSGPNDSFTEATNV

[9] = biological target: T2, Streptokinase A (Streptococcus pyogenes serotype M1, UniProt P10520); assay: S. pyogenes streptokinase expression inhibitors, potency, dose response, plasminogen activation absorbance, OD405 (AID 1914); type: functional, Streptococcus pyogenes M1 GAS;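 note: secreted streptokinase activity via plasminogen activation per viability signal from cell pellet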
T2 sequence (P10520 whole entry): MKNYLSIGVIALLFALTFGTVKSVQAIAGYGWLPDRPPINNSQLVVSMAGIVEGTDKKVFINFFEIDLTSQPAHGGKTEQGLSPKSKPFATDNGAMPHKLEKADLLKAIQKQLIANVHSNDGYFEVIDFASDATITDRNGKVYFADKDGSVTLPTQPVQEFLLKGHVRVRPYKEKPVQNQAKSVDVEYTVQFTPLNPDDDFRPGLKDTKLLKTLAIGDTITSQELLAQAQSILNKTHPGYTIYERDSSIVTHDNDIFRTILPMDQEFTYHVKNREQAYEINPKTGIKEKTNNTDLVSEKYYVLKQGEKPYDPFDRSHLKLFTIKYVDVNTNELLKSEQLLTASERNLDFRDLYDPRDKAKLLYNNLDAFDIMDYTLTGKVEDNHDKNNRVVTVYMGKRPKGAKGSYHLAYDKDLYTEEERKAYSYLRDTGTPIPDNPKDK

[10] = C. albicans growth with fluconazole, confirmation, fluorescence, retest (AID 2467); type: functional, cell-based
[11] = microbe, parasite or virus in culture; type: functional; conditions: Mycobacterium tuberculosis
[12] = biological target: T3, Neuropeptide Y receptor type 1 (Homo sapiens, UniProt P25929); assay: Fluorescence-based counterscreen for agonists of NPY-Y2: cell-based high-throughput dose response assay for agonists of NPY-Y1.; type: functional
T3 sequence (P25929 whole entry): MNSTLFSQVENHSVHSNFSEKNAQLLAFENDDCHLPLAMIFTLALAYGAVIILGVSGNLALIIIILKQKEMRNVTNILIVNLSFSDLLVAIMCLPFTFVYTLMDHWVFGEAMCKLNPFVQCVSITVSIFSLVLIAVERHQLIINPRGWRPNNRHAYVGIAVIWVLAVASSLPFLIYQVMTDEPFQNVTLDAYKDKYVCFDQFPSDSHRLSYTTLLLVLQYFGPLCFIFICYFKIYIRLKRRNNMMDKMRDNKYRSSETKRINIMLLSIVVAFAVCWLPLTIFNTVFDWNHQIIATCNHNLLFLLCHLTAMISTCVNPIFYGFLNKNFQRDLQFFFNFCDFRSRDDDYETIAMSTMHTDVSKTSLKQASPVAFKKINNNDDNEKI

[13] = tested on: Streptococcus; assay: Group A Streptococcus viability loss, dose response, counter-screen for streptokinase expression inhibitor project, luminescence, BacTiterGlo (AID 1915); type: functional, organism-based;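 note: potency for reduction of bacterial viability or growth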
[14] = biological target: T4, High affinity choline transporter 1 (Homo sapiens, UniProt Q9GZV3); assay: CHT inhibitors, dose response, cell-based, 5-point CRC, membrane potential dye (AID 504840); type: functional
T4 sequence (Q9GZV3 whole entry): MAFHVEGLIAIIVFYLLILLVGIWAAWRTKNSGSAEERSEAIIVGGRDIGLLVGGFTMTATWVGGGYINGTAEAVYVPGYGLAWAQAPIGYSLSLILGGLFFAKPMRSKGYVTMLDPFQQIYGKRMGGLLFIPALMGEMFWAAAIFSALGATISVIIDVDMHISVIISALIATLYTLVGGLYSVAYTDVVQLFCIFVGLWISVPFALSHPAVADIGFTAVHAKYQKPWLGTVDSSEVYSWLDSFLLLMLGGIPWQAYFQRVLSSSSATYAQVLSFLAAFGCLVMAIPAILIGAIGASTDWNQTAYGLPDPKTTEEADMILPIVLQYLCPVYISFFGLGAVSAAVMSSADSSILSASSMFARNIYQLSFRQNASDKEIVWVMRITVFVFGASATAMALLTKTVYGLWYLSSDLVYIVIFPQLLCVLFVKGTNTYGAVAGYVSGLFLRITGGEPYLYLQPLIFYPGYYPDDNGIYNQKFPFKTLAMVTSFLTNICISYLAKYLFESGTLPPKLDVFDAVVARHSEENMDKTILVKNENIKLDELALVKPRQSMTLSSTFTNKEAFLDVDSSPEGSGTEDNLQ

[15] = biological target: T4, High affinity choline transporter 1; assay: CHT inhibitors, dose response, cell-based, 10-point CRC, membrane potential dye (AID 588401); type: functional;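 note: membrane potential dye fluorescence of choline-evoked depolarization via CHT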
[16] = biological target: T5, Polyadenylate-binding protein 1 (Homo sapiens, UniProt P11940); assay: PABP1 MLLE–PAM2 interaction inhibitors, dose response, miRNA deadenylation inhibitor project, biochemical, fluorescence polarization, Cy5-PAM2 peptide, secondary (AID 602260); type: functional; conditions: read-out: IC50_Mean
[17] = biological target: T5, Polyadenylate-binding protein 1; assay: PABP1 MLLE–PAM2 binding inhibitor potency, dose response, biochemical, fluorescence polarization, FITC-PAM2 peptide (AID 602259); type: functional; conditions: read-out: IC50_Mean
[18] = biological target: T6, Interleukin-8 (Homo sapiens, UniProt P10145); assay: Dose Response confirmation of uHTS small molecule hits for cystic fibrosis induced NFkb Inhibitors in a TNFa-induced IL8 counterscreen.; type: functional; conditions: read-out: IC50_Mean
[19] = biological target: T6, Interleukin-8; assay: Dose Response confirmation of uHTS small molecule hits for cystic fibrosis induced NFkb Inhibitors in a PAF-induced IL8 counterscreen.; type: functional; conditions: read-out: IC50_Mean
[20] = biological target: Paired box protein Pax-8 (Homo sapiens, UniProt Q06710); assay: inhibitors of PAX8-driven TPO luciferase reporter, dose response, RMG-I cells, cherry-pick (AID 687027); type: functional, cell-based;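 note: luciferase reporter driven by Pax8 target thyroperoxidase promoter measured by SteadyGlo luminescence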
[21] = biological target: DNA repair and recombination protein RAD54-like (Homo sapiens, UniProt Q92698); assay: inhibitors of human RAD54 branch migration, confirmation, biochemical, fluorescence, cherry-picked samples, dose series (AID 651657); type: functional
Sequence of DNA repair and recombination protein RAD54-like (Q92698 whole entry): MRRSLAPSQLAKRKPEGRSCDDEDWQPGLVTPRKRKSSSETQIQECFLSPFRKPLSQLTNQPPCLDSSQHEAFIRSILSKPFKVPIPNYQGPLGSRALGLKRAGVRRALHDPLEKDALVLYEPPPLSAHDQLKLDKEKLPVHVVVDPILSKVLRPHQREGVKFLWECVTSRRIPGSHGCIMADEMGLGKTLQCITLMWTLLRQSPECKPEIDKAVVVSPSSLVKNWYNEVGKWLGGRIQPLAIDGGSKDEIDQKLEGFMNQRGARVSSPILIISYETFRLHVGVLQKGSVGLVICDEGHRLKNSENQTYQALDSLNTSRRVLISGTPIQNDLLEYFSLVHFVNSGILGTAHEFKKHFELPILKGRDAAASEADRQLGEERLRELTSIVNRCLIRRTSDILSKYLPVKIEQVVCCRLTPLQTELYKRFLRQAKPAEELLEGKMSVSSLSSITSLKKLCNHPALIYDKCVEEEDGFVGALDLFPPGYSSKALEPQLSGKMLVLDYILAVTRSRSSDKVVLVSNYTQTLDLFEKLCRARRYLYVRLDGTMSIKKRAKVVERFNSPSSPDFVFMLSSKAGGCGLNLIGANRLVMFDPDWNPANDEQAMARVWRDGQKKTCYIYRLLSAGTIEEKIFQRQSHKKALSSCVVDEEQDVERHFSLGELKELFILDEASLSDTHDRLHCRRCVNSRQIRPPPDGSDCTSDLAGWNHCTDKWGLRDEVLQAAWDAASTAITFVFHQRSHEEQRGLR

T6 sequence (P10145 whole entry): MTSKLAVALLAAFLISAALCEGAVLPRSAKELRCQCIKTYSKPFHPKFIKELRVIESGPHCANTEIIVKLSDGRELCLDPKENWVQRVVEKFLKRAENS
T5 sequence (P11940 whole entry): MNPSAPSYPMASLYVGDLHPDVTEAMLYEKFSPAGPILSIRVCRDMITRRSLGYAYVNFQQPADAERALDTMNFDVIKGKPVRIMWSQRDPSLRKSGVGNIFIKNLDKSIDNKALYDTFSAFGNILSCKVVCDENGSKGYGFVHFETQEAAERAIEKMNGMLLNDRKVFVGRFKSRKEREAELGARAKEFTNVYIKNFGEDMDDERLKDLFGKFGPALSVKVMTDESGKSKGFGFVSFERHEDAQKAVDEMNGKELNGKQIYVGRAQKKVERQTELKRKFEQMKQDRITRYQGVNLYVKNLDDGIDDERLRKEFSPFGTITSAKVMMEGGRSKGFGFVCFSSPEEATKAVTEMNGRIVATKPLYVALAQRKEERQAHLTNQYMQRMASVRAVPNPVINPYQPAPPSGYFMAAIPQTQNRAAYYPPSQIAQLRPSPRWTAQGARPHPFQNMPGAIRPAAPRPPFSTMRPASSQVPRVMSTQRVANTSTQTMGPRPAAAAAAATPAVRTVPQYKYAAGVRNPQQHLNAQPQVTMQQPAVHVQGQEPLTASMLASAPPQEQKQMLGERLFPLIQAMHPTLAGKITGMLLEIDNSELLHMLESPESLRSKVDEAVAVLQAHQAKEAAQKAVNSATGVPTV
Sequence of Cytochrome P450 2C9 (P11712 whole entry): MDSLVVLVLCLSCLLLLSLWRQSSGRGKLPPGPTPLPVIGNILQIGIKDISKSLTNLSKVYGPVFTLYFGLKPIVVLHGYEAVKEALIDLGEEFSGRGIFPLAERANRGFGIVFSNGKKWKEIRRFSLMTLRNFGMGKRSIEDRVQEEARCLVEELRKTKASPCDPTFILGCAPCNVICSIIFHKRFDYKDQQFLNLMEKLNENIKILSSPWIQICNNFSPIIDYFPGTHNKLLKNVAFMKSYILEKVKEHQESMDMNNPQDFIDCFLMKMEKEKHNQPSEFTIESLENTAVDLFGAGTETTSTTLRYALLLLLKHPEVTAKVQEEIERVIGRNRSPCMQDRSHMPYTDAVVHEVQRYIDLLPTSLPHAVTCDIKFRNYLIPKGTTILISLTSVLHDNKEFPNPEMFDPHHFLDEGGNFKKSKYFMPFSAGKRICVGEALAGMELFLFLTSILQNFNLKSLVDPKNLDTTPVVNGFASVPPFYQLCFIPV
Sequence of Paired box protein Pax-8 (Q06710 whole entry): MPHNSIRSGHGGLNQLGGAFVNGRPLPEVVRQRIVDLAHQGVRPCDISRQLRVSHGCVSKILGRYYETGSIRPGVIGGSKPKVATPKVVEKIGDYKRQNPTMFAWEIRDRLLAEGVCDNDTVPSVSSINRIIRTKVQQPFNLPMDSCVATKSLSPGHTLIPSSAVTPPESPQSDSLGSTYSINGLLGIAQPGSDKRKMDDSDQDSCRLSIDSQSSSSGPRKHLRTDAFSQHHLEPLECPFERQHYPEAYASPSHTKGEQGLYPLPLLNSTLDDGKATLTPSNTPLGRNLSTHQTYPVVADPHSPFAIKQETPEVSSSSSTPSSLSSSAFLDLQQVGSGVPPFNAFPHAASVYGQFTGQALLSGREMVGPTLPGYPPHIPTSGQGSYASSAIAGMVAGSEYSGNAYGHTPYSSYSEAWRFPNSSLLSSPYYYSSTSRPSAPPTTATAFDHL
Sequence of Cytochrome P450 3A4 (P08684 whole entry): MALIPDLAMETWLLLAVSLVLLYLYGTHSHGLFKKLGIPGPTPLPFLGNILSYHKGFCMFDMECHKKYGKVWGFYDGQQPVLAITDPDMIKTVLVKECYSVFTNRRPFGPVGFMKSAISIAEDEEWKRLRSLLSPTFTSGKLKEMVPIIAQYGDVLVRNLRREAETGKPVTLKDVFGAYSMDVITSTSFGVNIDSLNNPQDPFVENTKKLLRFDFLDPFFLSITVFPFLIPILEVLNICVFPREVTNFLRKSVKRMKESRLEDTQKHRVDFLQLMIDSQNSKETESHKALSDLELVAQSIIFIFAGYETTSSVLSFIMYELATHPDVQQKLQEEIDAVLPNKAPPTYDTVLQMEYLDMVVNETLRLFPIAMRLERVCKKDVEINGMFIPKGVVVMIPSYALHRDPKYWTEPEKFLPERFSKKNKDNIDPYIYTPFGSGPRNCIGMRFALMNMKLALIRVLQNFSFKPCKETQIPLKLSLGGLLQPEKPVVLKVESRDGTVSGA
Sequence of Cytochrome P450 2C19 (P33261 whole entry, the tested form may be a part): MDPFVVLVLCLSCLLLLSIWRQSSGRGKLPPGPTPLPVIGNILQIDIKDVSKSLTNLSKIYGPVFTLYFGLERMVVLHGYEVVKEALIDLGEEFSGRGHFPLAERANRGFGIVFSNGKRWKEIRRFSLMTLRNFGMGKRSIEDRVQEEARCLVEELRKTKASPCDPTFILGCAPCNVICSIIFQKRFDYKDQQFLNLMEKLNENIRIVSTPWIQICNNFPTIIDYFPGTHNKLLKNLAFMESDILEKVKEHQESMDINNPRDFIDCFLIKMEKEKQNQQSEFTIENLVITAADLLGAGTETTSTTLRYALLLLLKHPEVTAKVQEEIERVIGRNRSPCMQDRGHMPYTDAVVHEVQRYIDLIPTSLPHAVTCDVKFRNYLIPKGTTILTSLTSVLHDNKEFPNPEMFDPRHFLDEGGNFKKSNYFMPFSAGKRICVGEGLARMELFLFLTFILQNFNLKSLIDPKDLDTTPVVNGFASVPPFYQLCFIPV
Sequence of Photoreceptor-specific nuclear receptor (Q9Y5X4 whole entry, the tested form may be a part): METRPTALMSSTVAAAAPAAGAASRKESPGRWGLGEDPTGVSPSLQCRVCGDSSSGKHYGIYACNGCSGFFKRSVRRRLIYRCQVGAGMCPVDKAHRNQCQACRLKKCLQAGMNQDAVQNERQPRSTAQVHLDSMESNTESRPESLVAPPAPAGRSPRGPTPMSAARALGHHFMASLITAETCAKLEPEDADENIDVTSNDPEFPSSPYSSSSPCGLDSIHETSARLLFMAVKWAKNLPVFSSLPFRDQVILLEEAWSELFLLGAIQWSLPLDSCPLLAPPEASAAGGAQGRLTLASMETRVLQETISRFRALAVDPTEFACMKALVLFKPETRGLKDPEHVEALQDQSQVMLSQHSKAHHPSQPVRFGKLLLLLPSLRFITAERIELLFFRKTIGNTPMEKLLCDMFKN

For `O=c1cc(N2CCN(c3ccccc3)CC2)[nH]c(=O)n1C1CCCCC1`, the AC50 [1] was 3.16 µM (inconclusive), the IC50 [2] was 0.511 µM (active) and the AC50 [3] was 6.31 µM (inconclusive). For the same molecule, the AC50 [4] was 15.8 µM (inconclusive).

With `N#C/C(=N/Nc1ccc(OC(F)(F)F)cc1)C(N)=S` the EC50 [5] was 15 µM (active), the EC50 [6] was > 35.4 µM (not active) and the EC50 [7] was 44.9 µM (active). For the same molecule, the EC50 [8] was > 35.4 µM (not active), the EC50 [9] was > 150 µM (not active) and the EC50 [10] was 1.67 µM (active). For the same molecule, the CC50 [11] was 8.05 µM (active), the EC50 [12] was 33.3 µM (not active) and the EC50 [13] was > 150 µM (not active). The IC50 [14] was 7.16 µM (active), the IC50 [15] was 0.631 µM (active) and the IC50 [16] was > 66 µM (inactive). For the same molecule, the IC50 [17] was > 66 µM (inactive).

For `CCOC(=O)Nc1ccc2c(c1)N(C(=O)CCN(CC)CC)c1ccccc1[S+]2[O-]` (stereo not drawn), the IC50 [18] was 1.01 µM (active), the IC50 [19] was 1.12 µM (active) and the AC50 [20] was 7.06 µM (active).

For `COc1cccc(-c2nc(N3CCN(Cc4ccccc4)CC3)c3ccccc3n2)c1O`, the AC50 [21] was 100 µM (inactive).

In the case of `O=[N+]([O-])/C(C(=C(Cl)Cl)N1CCN(Cc2ccccc2)CC1)=C1\NCCN1Cc1ccc(Cl)nc1`, the IC50 [14] is reported as 6.15 µM (active) and the IC50 [15] is reported as 5.39 µM (active).
